Measured values published in ChEMBL document CHEMBL1122283, “Angiotensin converting enzyme inhibitors: 1-glutarylindoline-2-carboxylic acids derivatives” (J Med Chem, 1983).

Experiments:
[1] = biological target: T1, Angiotensin-converting enzyme (Oryctolagus cuniculus, UniProt P12822); test: In vitro inhibition of angiotensin I converting enzyme (ACE)
T1 sequence (P12822 whole entry): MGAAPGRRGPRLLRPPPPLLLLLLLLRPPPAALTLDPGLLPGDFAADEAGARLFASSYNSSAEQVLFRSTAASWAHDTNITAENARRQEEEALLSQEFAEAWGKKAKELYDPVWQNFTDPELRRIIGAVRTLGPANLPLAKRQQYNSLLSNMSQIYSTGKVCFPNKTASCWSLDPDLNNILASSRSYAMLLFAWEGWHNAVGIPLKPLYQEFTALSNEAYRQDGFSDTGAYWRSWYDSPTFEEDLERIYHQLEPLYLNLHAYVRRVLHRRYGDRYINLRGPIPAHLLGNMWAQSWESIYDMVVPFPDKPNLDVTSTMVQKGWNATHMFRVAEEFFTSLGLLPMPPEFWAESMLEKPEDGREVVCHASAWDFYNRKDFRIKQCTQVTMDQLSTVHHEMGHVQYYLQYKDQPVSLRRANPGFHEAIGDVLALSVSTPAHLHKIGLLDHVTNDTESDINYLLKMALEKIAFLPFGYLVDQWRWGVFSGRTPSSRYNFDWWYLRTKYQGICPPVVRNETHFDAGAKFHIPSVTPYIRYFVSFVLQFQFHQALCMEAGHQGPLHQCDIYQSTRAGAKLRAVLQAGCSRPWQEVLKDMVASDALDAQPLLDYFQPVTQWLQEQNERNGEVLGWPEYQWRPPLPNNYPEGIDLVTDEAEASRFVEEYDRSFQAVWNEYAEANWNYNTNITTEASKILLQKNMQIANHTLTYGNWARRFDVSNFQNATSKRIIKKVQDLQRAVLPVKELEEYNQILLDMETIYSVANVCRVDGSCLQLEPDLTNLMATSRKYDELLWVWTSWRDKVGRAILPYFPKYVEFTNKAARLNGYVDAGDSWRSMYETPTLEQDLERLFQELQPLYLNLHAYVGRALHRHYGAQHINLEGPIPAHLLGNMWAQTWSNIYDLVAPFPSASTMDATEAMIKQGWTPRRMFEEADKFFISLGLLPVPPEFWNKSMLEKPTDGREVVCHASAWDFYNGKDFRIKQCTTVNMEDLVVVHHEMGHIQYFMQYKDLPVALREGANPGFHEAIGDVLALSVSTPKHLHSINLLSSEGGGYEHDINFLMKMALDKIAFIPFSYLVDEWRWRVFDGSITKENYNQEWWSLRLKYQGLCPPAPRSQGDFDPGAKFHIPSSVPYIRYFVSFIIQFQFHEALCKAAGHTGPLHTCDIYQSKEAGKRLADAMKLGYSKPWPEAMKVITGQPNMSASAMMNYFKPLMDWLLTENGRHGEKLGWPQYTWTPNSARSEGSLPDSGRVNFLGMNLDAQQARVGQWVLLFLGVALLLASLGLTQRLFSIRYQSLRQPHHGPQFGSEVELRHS

Rattus norvegicus [2] = test: In vivo percent inhibition of angiotensin I pressor response 15 min after 0.4 mg/kg, iv administration in spontaneously hypertensive rat (SHR); format: functional; conditions: 0.25 h
Rattus norvegicus [3] = test: Maximal change in blood pressure recorded during the 4-day test period in spontaneously hypertensive rat (SHR)at 30 mg/kg, po dose; format: functional
Rattus norvegicus [4] = test: In vivo percent inhibition of angiotensin I pressor response 15 min after 0.10 mg/kg, iv administration in spontaneously hypertensive rat (SHR); format: functional; conditions: 0.25 h
Rattus norvegicus [5] = test: Maximal change in blood pressure recorded during the 4-day test period in spontaneously hypertensive rat (SHR)at 50 mg/kg, p.o. dose; format: functional; conditions: route oral
Rattus norvegicus [6] = test: In vivo percent inhibition of angiotensin I pressor response 15 min after 1 mg/kg, iv administration in spontaneously hypertensive rat (SHR); format: functional; conditions: for inhibition in vivo at 1 mg/kg: Rattus norvegicus, iv, 0.25 h
Rattus norvegicus [7] = test: In vivo percent inhibition of angiotensin I pressor response 15 min after 10 mg/kg, iv administration in spontaneously hypertensive rat (SHR); format: functional; conditions: 0.25 h
Rattus norvegicus [8] = test: Maximal change in blood pressure recorded during the 4-day test period in spontaneously hypertensive rat (SHR) at 30 mg/kg, po dose; format: functional
Rattus norvegicus [9] = test: In vivo percent inhibition of angiotensin I pressor response 15 min after 10mg/kg, iv administration in spontaneously hypertensive rat (SHR); format: functional; conditions: 0.25 h
[10] = biological target: T1, Angiotensin-converting enzyme; test: In vitro inhibition of angiotensin converting enzyme
Rattus norvegicus [11] = test: In vivo percent inhibition of angiotensin I pressor response 15 min after 2 mg/kg, iv administration in spontaneously hypertensive rat (SHR); format: functional; conditions: 0.25 h
Rattus norvegicus [12] = test: In vivo percent inhibition of angiotensin I pressor response 15 min after 0.3 mg/kg, iv administration in spontaneously hypertensive rat (SHR); format: functional; conditions: 0.25 h
Rattus norvegicus [13] = test: Maximal change in blood pressure recorded during the 4-day test period in spontaneously hypertensive rat (SHR)at 10mg/kg, po dose; format: functional

CCOC(=O)[C@H](CCc1ccccc1)C[C@@H](C)C(=O)N1c2ccccc2CC1C(=O)O (stereo not given in full)
IC50 [1]: 11000 nM | inhibition in vivo at 0.4 mg/kg (Rattus norvegicus [2]): 89% | Max delta BP (Rattus norvegicus [3]): -70 mmHg

C[C@H](C[C@@H](CCc1ccccc1)C(=O)O)C(=O)N1c2ccccc2CC1C(=O)O (stereo not given in full)
IC50 [1]: 4.8 nM | inhibition in vivo at 0.1 mg/kg (Rattus norvegicus [4]): 60%

CCOC(=O)CC[C@@H](C)C(=O)N1c2ccccc2CC1C(=O)O (stereo not given in full)
IC50 [1]: 11000 nM | inhibition in vivo at 0.1 mg/kg (Rattus norvegicus [4]): 27% | Max delta BP (Rattus norvegicus [5]): -66 mmHg

CC(C)(CC(=O)O)CC(=O)N1c2ccccc2CC1C(=O)O (stereo not given)
IC50 [1]: 290000 nM

C[C@H](C[C@@H](C)C(=O)N1CCC[C@H]1C(=O)O)C(=O)O
IC50 [1]: 4800 nM

C[C@H](CCC(=O)O)C(=O)N1c2ccccc2CC1C(=O)O (stereo not given in full)
IC50 [1]: 44 nM | inhibition in vivo at 1 mg/kg (Rattus norvegicus [6]): 94% | Max delta BP (Rattus norvegicus [3]): -35 mmHg

CC(CC(=O)O)C(=O)N1c2ccccc2C[C@H]1C(=O)O (stereo not given in full)
IC50 [1]: 300 nM | inhibition in vivo at 1 mg/kg (Rattus norvegicus [6]): 27%

O=C(O)CCCC(=O)N1c2ccccc2CC1C(=O)O (stereo not given)
IC50 [1]: 260 nM | inhibition in vivo at 10 mg/kg (Rattus norvegicus [7]): 78% | Max delta BP (Rattus norvegicus [8]): -37 mmHg

C[C@H](C[C@@H](C)C(=O)N1c2ccccc2CC1C(=O)O)C(=O)O (stereo not given in full)
IC50 [1]: 28 nM | inhibition in vivo at 0.1 mg/kg (Rattus norvegicus [4]): 45% | Max delta BP (Rattus norvegicus [5]): -39 mmHg

CC(CCC(=O)O)C(=O)N1c2ccccc2CC1C(=O)O (stereo not given)
IC50 [1]: 64 nM | inhibition in vivo at 1 mg/kg (Rattus norvegicus [6]): 84% | Max delta BP (Rattus norvegicus [5]): -61 mmHg

CC(CCC(N)=O)C(=O)N1c2ccccc2CC1C(=O)O (stereo not given)
IC50 [1]: 16000 nM | inhibition in vivo at 10 mg/kg (Rattus norvegicus [9]): 71%

COC(=O)CCC(C)C(=O)N1c2ccccc2CC1C(=O)O (stereo not given)
IC50 [1]: 6900 nM | inhibition in vivo at 0.1 mg/kg (Rattus norvegicus [4]): 45% | Max delta BP (Rattus norvegicus [5]): -61 mmHg

Cc1ccc2c(c1)CC(C(=O)O)N2C(=O)[C@H](C)C[C@@H](C)C(=O)O (stereo not given in full)
IC50 [10]: 490 nM | inhibition in vivo at 2 mg/kg (Rattus norvegicus [11]): 40%

O=C(O)CCCC(=O)N1CCC[C@H]1C(=O)O
IC50 [1]: 70000 nM

COc1ccc2c(c1)CC(C(=O)O)N2C(=O)[C@H](C)C[C@@H](C)C(=O)O (stereo not given in full)
IC50 [1]: 110 nM | inhibition in vivo at 1 mg/kg (Rattus norvegicus [6]): 56%

CCOC(=O)[C@@H](CCC(=O)N1c2ccccc2CC1C(=O)O)CCc1ccccc1 (stereo not given in full)
IC50 [1]: 4300 nM | inhibition in vivo at 1 mg/kg (Rattus norvegicus [6]): 17%

CC(C)C(CCC(=O)O)C(=O)N1c2ccccc2CC1C(=O)O (stereo not given)
IC50 [1]: 50 nM | inhibition in vivo at 1 mg/kg (Rattus norvegicus [6]): 77%

O=C(O)C1Cc2ccccc2N1C(=O)CC[C@@H](CCc1ccccc1)C(=O)O (stereo not given in full)
IC50 [1]: 33 nM

CC(CCC(=O)N1c2ccccc2CC1C(=O)O)C(=O)O (stereo not given)
IC50 [1]: 920 nM | inhibition in vivo at 10 mg/kg (Rattus norvegicus [9]): 41%

CCOC(=O)C1Cc2ccccc2N1C(=O)CCC(C)C(=O)O (stereo not given)
IC50 [1]: 170000 nM | inhibition in vivo at 10 mg/kg (Rattus norvegicus [9]): 11%

O=C(O)C(CCC(=O)N1c2ccccc2CC1C(=O)O)CCc1ccccc1 (stereo not given)
IC50 [1]: 39 nM | inhibition in vivo at 10 mg/kg (Rattus norvegicus [9]): 75% | Max delta BP (Rattus norvegicus [5]): -46 mmHg

CC(CC(=O)O)CC(=O)N1c2ccccc2CC1C(=O)O (stereo not given)
IC50 [1]: 37000 nM | inhibition in vivo at 10 mg/kg (Rattus norvegicus [9]): 20%

CCOC(=O)C1Cc2ccccc2N1C(=O)C(C)CC(C)C(=O)O (stereo not given)
IC50 [1]: 8800 nM | inhibition in vivo at 10 mg/kg (Rattus norvegicus [9]): 84% | Max delta BP (Rattus norvegicus [5]): -33 mmHg

CCOC(=O)C1Cc2ccccc2N1C(=O)[C@H](C)C[C@@H](C)C(=O)O (stereo not given in full)
IC50 [1]: 28000 nM | inhibition in vivo at 0.3 mg/kg (Rattus norvegicus [12]): 16%

CCOC(=O)[C@H](C)C[C@@H](C)C(=O)N1c2ccccc2CC1C(=O)O (stereo not given in full)
IC50 [1]: 5500 nM | inhibition in vivo at 0.1 mg/kg (Rattus norvegicus [4]): 52% | Max delta BP (Rattus norvegicus [5]): -75 mmHg

C[C@H](C[C@@H](C)C(=O)N1c2ccc(Cl)cc2CC1C(=O)O)C(=O)O (stereo not given in full)
IC50 [1]: 440 nM | inhibition in vivo at 2 mg/kg (Rattus norvegicus [11]): 32%

CC(CC(C)C(=O)N1c2ccccc2CC1C(=O)O)C(=O)O (stereo in doubt; 6m)
IC50 [1]: 190 nM | inhibition in vivo at 1 mg/kg (Rattus norvegicus [6]): 76%

CC(CC(C)C(=O)N1c2ccccc2CC1C(=O)O)C(=O)O (stereo in doubt; 6n)
IC50 [1]: 54 nM | Inhibition (Rattus norvegicus [6]; 1 mg/kg): 84%

C[C@H](CS)C(=O)N1CCC[C@H]1C(=O)O [CAPTOPRIL]
inhibition in vivo at 1 mg/kg (Rattus norvegicus [6]): 90% | Max delta BP (Rattus norvegicus [13]): -45 mmHg | Max delta BP (Rattus norvegicus [3]): -55 mmHg
